# According to US20230310540A1, “PEPTIDE COMPOSITIONS AND METHODS OF USE THEREOF” (priority 2020, published 2023):
# Like-named read-outs stand apart in the source and are kept apart here. Square brackets hold non-standard residues; d marks the D form. Peptide text beside a SMILES is read from it. βAla = NCCC(=O)O
# Assays:
# [1] = test system: Pseudomonas aeruginosa (CF mucoid and non-mucoid); assay: Broth dilution MIC against P. aeruginosa isolates from cystic fibrosis patients; assay type: cell-based
# [2] = test system: Acinetobacter baumannii (PDR); assay: Broth dilution MIC against pan drug-resistant A. baumannii isolate; assay type: cell-based; details: isolate AB (PDR)
# [3] = test system: Klebsiella pneumoniae clinical isolates
# [4] = test system: Methicillin-resistant Staphylococcus aureus (SAP400); assay: Broth dilution MIC against MRSA isolate; assay type: cell-based
# [5] = test system: WI-38 human fibroblast cells; assay: SYTOX Green cytotoxicity assay; assay type: cell-based
# Description: Peptide variants of D-CONGA (SEQ ID NO: 1) were tested for activity against E. coli, K. pneumoniae, and S. aureus. Minimum Inhibitory Concentrations (MIC) were measured in 96-well plates by broth dilution. […] Following 1 hr. incubation, bacteria in growth media were added and the plates were incubated overnight at 37° C. Sterilized, wells were identified to determine MIC. […] The value for 100% hemolysis was established by treatment with the detergent Triton-X100. Toxicity was measured by incubating serially diluted peptide with WI38 human fibroblast cells in the presence of SYTOX Green, a DNA binding dye that reports on cell death by membrane permeabilization. The peptide concentration that gives 50% cytotoxicity by relative SYTOX Green fluorescence, is denoted EC50. WI-38 cells were grown to confluency in T-75 flasks in complete DMEM (with 15% FBS, plus antibiotics and non-essential amino acids). The day prior to cytotoxicity experiments, cells were trypsinized, removed from the flask, and pelleted. Cells were resuspended in complete DMEM and the cell count was obtained using a cell counter. The cells were then seeded at a density of 10,000 cells/well in a 96-well tissue-culture plate. […] To perform the cytotoxicity assay, media from wells of overnight cell culture plate was removed, washed once with PBS and treated with 50 μl of the peptide and SYTOX™ Green mixture. The plate was read for fluorescence, every 5 minutes, for an hour at the excitation wavelength of 385 nm and emission wavelength of 530 nm. MelP5, a potent MPP, that causes 100% SYTOX™ Green entry into the cells was used as a positive control to normalize the cytotoxicity of peptides tested. MIC values were reported in μM peptide against gram-negative E. coli (EC), P. aeruginosa (PA), and gram-positive S. aureus (SA). […] The column marked “EC 50” contains the concentration of peptide that kills 50% of WI-38 human fibroblast cells assayed by entry of SYTOX™ Green DNA binding dye.
# S. aureus = assay type: cell-based; details: for MIC in Broth Dilution, S. Aureus, RBC −: absence of RBC; for MIC in Broth Dilution, S. Aureus, RBC − / MIC in Broth Dilution, S. Aureus, RBC +: Table 3; for MIC, S. aureus, No RBC / MIC, S. aureus, 10^9 cells/ml RBC: Table 2; for MIC in Broth Dilution, S. Aureus, RBC +: presence of 1×10^9 human RBC/ml; for MIC, S. aureus, 10^9 cells/ml RBC: with 10^9 human RBC/ml
# Description: (§1) Peptide variants of D-CONGA (SEQ ID NO: 1) were tested for activity against E. coli, K. pneumoniae, and S. aureus. Minimum Inhibitory Concentrations (MIC) were measured in 96-well plates by broth dilution. Peptides were serially diluted in buffer or in buffer containing 1×10^9 human RBC/ml. Following 1 hr. incubation, bacteria in growth media were added and the plates were incubated overnight at 37° C. Sterilized, wells were identified to determine MIC. Hemolysis was measured by incubating 1×10^8 human RBCs with serially diluted peptide for 30 minutes followed by centrifugation of the cells and measurements of the released hemoglobin in the supernatant by absorbance at 410 nm. The value for 100% hemolysis was established by treatment with the detergent Triton-X100. Toxicity was measured by incubating serially diluted peptide with WI38 human fibroblast cells in the presence of SYTOX Green, a DNA binding dye that reports on cell death by membrane permeabilization. The peptide concentration that gives 50% cytotoxicity by relative SYTOX Green fluorescence, is denoted EC50.
# (§2) Antimicrobial peptides and conventional antibiotics were prepared at 5-times the final concentration needed in 0.025% acetic acid. The antibiotics were serially diluted by a factor of 2:3 horizontally across 96-well plates from Corning, 25 μL per well. One column was reserved for controls. For the assays performed in the presence of RBC, type O+ human RBCs at 0 or 2.5×10^9 cells/mL were added in 50 μL aliquots to all wells. Following a 30-minute incubation, 50 μL of TSB, inoculated with 5×10^5 CFU/mL, was added to all wells, and plates were incubated overnight at 37° C. Following overnight incubation at 37° C., the OD600 was measured (values of less than 0.1 were considered sterilized). To assess bacterial growth in the assays with RBC, the OD600 was measured after a second day inoculation with 10 μL of solution from the original plate added to 100 μL of sterile TSB followed by overnight incubation.
# (§3) MIC values were reported in μM peptide against gram-negative E. coli (EC), P. aeruginosa (PA), and gram-positive S. aureus (SA). The two columns under each organism are for assays performed in the absence (−) and presence (+) of 1×10^9 human RBC/ml. “>30” means that sterilization was not observed at 30 μM, the highest concentration tested. The column marked “hemolysis” is the fractional hemolysis of 1×10^8 human RBC/ml at 100 μM peptide determined from measurements of serially diluted peptide, starting from 100 μM. The column marked “EC 50” contains the concentration of peptide that kills 50% of WI-38 human fibroblast cells assayed by entry of SYTOX™ Green DNA binding dye.
# K. pneumoniae = assay type: cell-based; details: for MIC, K. pneumoniae, 10^9 cells/ml RBC: with 10^9 human RBC/ml
# Description: as §1, §2, §3
# E. coli = assay type: cell-based; details: for MIC in Broth Dilution, E. coli, RBC −: absence of RBC; for MIC in Broth Dilution, E. coli, RBC − / MIC in Broth Dilution, E. coli, RBC +: Table 3; for MIC, E. coli, No RBC / MIC, E. coli, 10^9 cells/ml RBC: Table 2; for MIC in Broth Dilution, E. coli, RBC +: presence of 1×10^9 human RBC/ml; for MIC, E. coli, 10^9 cells/ml RBC: with 10^9 human RBC/ml
# Description: as §1, §2, §3
# human RBCs = assay: Hemolysis of human RBCs; assay type: cell-based
# Description: as §1
# Peptide was serially diluted in PBS starting at a concentration of 100 μM. The final volume of peptide in each well was 50 μL. To each well, 50 μL of RBCs in PBS at 2×10^8 cells/mL was added. As a positive lysis control, 1% triton was used. The mixtures were incubated at 37° C. for 1 hour, after which they were centrifuged at 1000 g for 5 minutes. After centrifugation, 10 μL of supernatant was transferred to 90 μL of DI H2O in a fresh 96-well plate. The absorbance of released hemoglobin at 410 nm was recorded and the fractional hemolysis was calculated based on the 100% and 0% lysis controls.
# as §3
# [6] = isolate KP (Morici), ATCC #33495
# [7] = 50% cytotoxicity by SYTOX Green, Table 2, read-out: EC50, μM (WI-38 Cells)
Molecule,MIC ([1]; isolate PA (mucoid)) [µM],MIC ([1]; isolate PA (non-mucoid)) [µM],MIC [2] [µM],MIC [4] [µM],"EC50 [5, 7] [µM]","MIC in Broth Dilution, S. Aureus, RBC − (S. aureus) [µM]","MIC, S. aureus, No RBC (S. aureus) [µM]","MIC in Broth Dilution, S. Aureus, RBC + (S. aureus) [µM]","MIC, S. aureus, 10^9 cells/ml RBC (S. aureus) [μM]","MIC, K. pneumoniae, 10^9 cells/ml RBC (K. pneumoniae; Table 2) [μM]","MIC, E. coli, No RBC (E. coli) [µM]","MIC, E. coli, 10^9 cells/ml RBC (E. coli) [μM]",Hemolysis at 100 μM (human RBCs),also measured
"CO/N=C(\C(=O)N[C@@H]1C(=O)N2C(C(=O)O)=C(CSc3nc(=O)c(O)nn3C)CS[C@H]12)c1csc(N)n1 [CRO, Ceftriaxone]",137.2,88.45,>150,>150,,,,,,,,,,"MIC ([3]; isolate KP 2146 (NDM-1)): >150 µM; MIC ([3]; isolate KP (6)): >150 µM; MIC ([3]; isolate KP (46)): 1.9 µM; MIC ([3]; isolate KP (398)): 0.2 µM; MIC ([3]; isolate KP (CRE)): 45 µM; MIC [3, 6]: 0.3 µM; MIC ([3]; isolate KP (ST258C3)): >150 µM; MIC ([3]; isolate KP (ST258I2)): >150 µM; MIC ([3]; isolate KP (ST396)): 1.9 µM; MIC ([3]; isolate KP (St258 C2)): >150 µM"
"CC1(C)S[C@@H]2[C@H](NC(=O)[C@H](N)c3ccccc3)C(=O)N2[C@H]1C(=O)O [AMP, Ampicillin]",>150,>150,>150,>150,,,,,,,,,,
Gentamicin,5.5,8.3,>150,>150,,,,,,,,,,"MIC ([3]; isolate KP 2146 (NDM-1)): >150 µM; MIC ([3]; isolate KP (6)): >150 µM; MIC ([3]; isolate KP (46)): 1.6 µM; MIC ([3]; isolate KP (398)): 1.9 µM; MIC ([3]; isolate KP (CRE)): 5.2 µM; MIC [3, 6]: 1.9 µM; MIC ([3]; isolate KP (ST258C3)): >150 µM; MIC ([3]; isolate KP (ST258I2)): 8.3 µM; MIC ([3]; isolate KP (ST396)): 2 µM; MIC ([3]; isolate KP (St258 C2)): >150 µM"
"CC(C)C[C@@H](NC(=O)[C@@H](CCC(N)=O)NC(=O)[C@@H](CCCNC(=N)N)NC(=O)[C@@H](CCCNC(=N)N)NC(=O)[C@@H](C)NC(=O)[C@@H](Cc1c[nH]c2ccccc12)NC(=O)[C@@H](CCCNC(=N)N)NC(=O)[C@H](N)CCCNC(=N)N)C(=O)N[C@H](C)C(=O)N[C@H](Cc1ccccc1)C(=O)N[C@H](C)C(=O)N[C@H](Cc1ccccc1)C(=O)N[C@H](CCCNC(=N)N)C(=O)N[C@H](CCCNC(=N)N)C(N)=O [D-CONGA-Q7, rrwarrqlafafrr (All D)] (H-[dR][dR][dW][dA][dR][dR][dQ][dL][dA][dF][dA][dF][dR][dR]-NH2)",,,,,418,4.2,4.2,3.6,3.6,1.5,1,1.7,0.07,"EC50 against WI-38 cells relative to that of D-CONGA [5]: four times higher; Toxicity against WI-38 cells (in words) [5]: lower cytotoxicity; MIC in Broth Dilution, E. coli, RBC − (E. coli): 1 µM; MIC in Broth Dilution, E. coli, RBC + (E. coli): 1.7 µM; MIC ([3]; clinical isolates): 1.8 µM"
"rrwa (nor r, nor r)lafafrr [D-CONGA-NorR]",,,,,66,7.6,7.6,17.2,17.2,12,1.9,2.4,,"EC50 ([5]; kills 50% of WI-38 cells, SYTOX Green entry, Table 3, read-out: EC50, μM (WI-38)): 66 µM; MIC in Broth Dilution, K. Pneumoniae, RBC − (K. pneumoniae; absence of RBC, Table 3): 13.3 µM; MIC, K. pneumoniae, No RBC (K. pneumoniae; no RBC, Table 2): 13 µM; MIC in Broth Dilution, K. Pneumoniae, RBC + (K. pneumoniae; presence of 1×10^9 human RBC/ml, Table 3): 11.8 µM; MIC in Broth Dilution, E. coli, RBC − (E. coli): 1.9 µM; MIC in Broth Dilution, E. coli, RBC + (E. coli): 2.4 µM"
"CC(C)C[C@@H](NC(=O)[C@@H](CCCNC(=N)N)NC(=O)[C@@H](CCCNC(=N)N)NC(=O)[C@@H](C)NC(=O)[C@@H](Cc1c[nH]c2ccccc12)NC(=O)[C@@H](CCCNC(=N)N)NC(=O)[C@H](N)CCCNC(=N)N)C(=O)N[C@H](C)C(=O)N[C@H](Cc1ccccc1)C(=O)N[C@H](C)C(=O)N[C@H](Cc1ccccc1)C(=O)N[C@H](CCCNC(=N)N)C(=O)N[C@H](CCCNC(=N)N)C(N)=O [D-CONGA, rrwarrlafafrr (All D), reference compound] (H-[dR][dR][dW][dA][dR][dR][dL][dA][dF][dA][dF][dR][dR]-NH2)",,,,,110,5.7,5.7,6.3,6.3,3.8,1.0,0.8,0.06,
"CC(C)C[C@@H](NC(=O)CCNC(=O)[C@@H](CCCNC(=N)N)NC(=O)[C@@H](CCCNC(=N)N)NC(=O)[C@@H](C)NC(=O)[C@@H](Cc1c[nH]c2ccccc12)NC(=O)[C@@H](CCCNC(=N)N)NC(=O)[C@H](N)CCCNC(=N)N)C(=O)N[C@H](C)C(=O)N[C@H](Cc1ccccc1)C(=O)N[C@H](C)C(=O)N[C@H](Cc1ccccc1)C(=O)N[C@H](CCCNC(=N)N)C(=O)N[C@H](CCCNC(=N)N)C(N)=O [D-CONGA-βa7, rrwarr-βa-lafafrr (All D)] (H-[dR][dR][dW][dA][dR][dR][βAla][dL][dA][dF][dA][dF][dR][dR]-NH2)",,,,,,,,,,,,,0.02,Toxicity against WI-38 cells (in words) [5]: least toxic of the variants
